Measured values from publication PMC2364878, “Insecticidal Effects of Organotin(IV) Compounds on Plutella Xylostella (L.) Larvae. II. Inhibitory Potencies Against Acetylcholinesterase and Evidence for Synergism in Tests With Bacillus Thuringiensis(BER.) and Malathion” (Metal-Based Drugs, 1994).
Where two headings read alike, the source gives them in different places.

Experiments:
[1] = system: T1, acetylcholinesterase (AChE), S-strain DBM larvae; experiment: Ellman colorimetric assay, […] nm, linear regression; type: biochemical, Plutella xylostella; conditions: acetylthiocholine iodide 0.5 mM, DTNB 0.3 mM, 0.1 M phosphate pH 7.0, 6 min, read-out: I50
T1 construct: gene ace1; native, 1,500 g supernatant of whole 4th instar larva homogenate, not purified

[2] = system: T2, acetylcholinesterase (AChE), R-strain DBM larvae; experiment: Ellman colorimetric assay, […] nm, linear regression; type: biochemical, Plutella xylostella; conditions: acetylthiocholine iodide 0.5 mM, DTNB 0.3 mM, 0.1 M phosphate pH 7.0, 6 min; above tested range (10^-3 to 10^-8 M); technical grade 90% a.i.; read-out: I50
T2 construct: gene ace1; native, 1,500 g supernatant of whole 4th instar larva homogenate, not purified

CNC(=O)ON=C(C)SC [Methomyl]
IC50 ([1]; technical grade 90% a.i.): 351 µM
IC50 [2]: 2360 µM

CCOC(=O)CC(SP(=S)(OC)OC)C(=O)OCC (stereo not drawn) [Malathion]
IC50 ([1]; above tested range (10^-3 to 10^-8 M), technical grade 84% a.i.): 33200 µM
